Test system: stratum corneum
Experiment: Desquamating power: count of corneocytes released from isolated stratum corneum discs after incubation with the test compound
Type: cell-based
Settings: 1 % by weight compound in PBS buffer + 0.1% Triton X100, pH 7.4, 37° C., 24 hours, with stirring
Description: The desquamating power of the compound prepared in Example 1 above was studied. This test comprised counting the corneocytes released after incubating batches of stratum corneum, isolated by trypsin/heat from plastic surgery operations, in the presence of the test compound.
Discs of stratum corneum 4 mm in diameter were cut out with a punch and placed at the bottom of a 96-well plate. Two different stratum corneum samples were used.
A solution was prepared comprising 1 % by weight of compound of Example 1 in a PBS buffer supplemented at 0.1% with Triton X100. The pH of the solution was readjusted to 7.4.
50 microliters of test solution or of control solution (PBS buffer supplemented at 0.1% with Triton X100) were added to each well. The experiment was repeated three times. The mixture was incubated at 37° C., with stirring, for 24 hours.
10 microliters of solution were then collected and placed in a Mallassez cell. The corneocytes released were counted under a microscope.
The following results were obtained, which express the mean, for the three trials, of the number of corneocytes released per microliter. The corneocyte fragments were not counted.

## CCCCCC1C(CC(=O)O)CCC1OC (racemic) [Compound of Example 1]
Stratum corneum Sample No. 1, control 6 ± 1
  number of corneocytes released per microliter, mean (3 trials per sample), Sample No. 1: 17 ± 6 per microliter
Stratum corneum Sample No. 2, control 6 ± 2
  number of corneocytes released per microliter, mean (3 trials per sample), Sample No. 2: 16 ± 6 per microliter

From patent US20050063999A1, “Use of at least one (dihydro)jasmonic acid derivative as a desquamating agent” (priority 2003, published 2005)
